Here are results for 49 molecules from US10532985B2, “Heterocycle and carbocycle derivatives having TRKA inhibitory activity” (Shionogi & Co., Ltd., priority 2014, dated 2020).

Bounds are passed on as bounds.

T1 sequence (P04629 33-796): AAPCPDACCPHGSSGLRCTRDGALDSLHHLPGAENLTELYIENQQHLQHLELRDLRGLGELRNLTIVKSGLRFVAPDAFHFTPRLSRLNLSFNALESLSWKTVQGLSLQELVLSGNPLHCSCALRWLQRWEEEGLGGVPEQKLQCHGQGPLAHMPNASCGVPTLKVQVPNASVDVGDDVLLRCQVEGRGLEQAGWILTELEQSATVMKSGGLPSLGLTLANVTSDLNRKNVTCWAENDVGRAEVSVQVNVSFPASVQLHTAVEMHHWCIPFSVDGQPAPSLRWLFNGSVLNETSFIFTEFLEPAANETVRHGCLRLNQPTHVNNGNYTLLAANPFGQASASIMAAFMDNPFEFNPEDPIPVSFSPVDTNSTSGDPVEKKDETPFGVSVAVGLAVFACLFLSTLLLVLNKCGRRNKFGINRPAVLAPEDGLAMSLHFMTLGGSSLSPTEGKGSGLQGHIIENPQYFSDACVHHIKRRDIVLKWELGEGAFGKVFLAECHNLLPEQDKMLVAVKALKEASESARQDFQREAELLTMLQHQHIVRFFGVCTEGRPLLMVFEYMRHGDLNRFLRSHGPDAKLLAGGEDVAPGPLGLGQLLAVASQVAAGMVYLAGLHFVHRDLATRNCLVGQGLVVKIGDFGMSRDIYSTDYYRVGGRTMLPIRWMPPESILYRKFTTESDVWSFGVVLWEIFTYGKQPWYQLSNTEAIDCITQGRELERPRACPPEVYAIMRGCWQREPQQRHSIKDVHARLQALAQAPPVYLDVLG

One experiment concerns the target T1, human TrkA (Homo sapiens, UniProt P04629).
T1 construct: purchased Lifetechnologies PV3144
Briefly: Test Example 2: Human TrkA Inhibition Assay. The conditions noted are these: Test Example 2; human TrkA 2.5 nmol/L, ATP 500 μmol/L, 90 min at room temperature; read-out: TrkA inhibitory activity IC50. Type of experiment: biochemical. The method, then: After the incubation for 90 min at room temperature, ten μL of termination buffer (100 mmol/L HEPES, 40 mmol/L ethylenediaminetetraacetic acid (EDTA), 10 mmol/L magnesium chloride, 0.003 vol % Brij-35, 0.004 vol % Tween20, 1 mmol/L DTT and 0.16 vol % Coating Reagent 3) was added in each well to stop the enzyme reaction. Fluorescent intensities (FI) of phosphorylated and non-phosphorylated fluorescent substrates were measured by LabChip EZReader II (Caliper LifeSciences, Inc.) and conversion ratio (CR) was calculated by the following formula-1. The CR in the well applied with DMSO alone was used as a negative control and the CR in the well without applying TrkA was used as a positive control. The inhibitory effect of each compound on TrkA phosphorylation was calculated by the following formula-2. CR (%)=(FI of phosphorylated substrate/(FI of phosphorylated substrate+FI of non-phosphorylated substrate))×100 (Formula-1) Inhibitory effect on TrkA phosphorylation (%)=(1−(CR in compound treated well−CR in positive control)/(CR in negative control−CR in positive control))×100. (Formula-2)
`COCCN1C[C@@H](NC(=NS(C)(=O)=O)Nc2c(C)c(-c3cnn(C)c3)nn2-c2ccccc2)[C@H](c2ccccc2)C1` [Compound I-141]: the IC50 worked out at 1.1 µM.

Consider `COCCN1C[C@@H](NC(=C[N+](=O)[O-])Nc2c(C)c(-c3cnn(C)c3)nn2-c2ccccc2)[C@H](c2ccccc2)C1` [Compound I-146], for which the IC50 came out at 1.8 µM.

On to `Cc1c(-c2cnn(C)c2)nn(-c2ccccc2)c1NC(=O)N[C@@H]1CN(CC2(C)COC2)C[C@H]1c1ccc(F)c(F)c1` [Compound I-142], for which the IC50 turned out to be 1.3 µM.

For `Cc1c(-c2cnn(C)c2)nn(-c2ccccc2)c1NC(=O)N[C@@H]1CC(=O)C[C@H]1c1ccccc1` (racemic) [Compound I-161], the IC50 was 4.2 µM.

For the molecule `COCCN1C[C@@H](NC(=NO)Nc2c(C)c(-c3cnn(C)c3)nn2-c2ccccc2)[C@H](c2ccccc2)C1` [Compound I-129], the IC50 is 0.44 µM.

For `Cc1c(-c2cnn(C)c2)nn(-c2ccccc2)c1NC(=O)N[C@@H]1CC(O)C[C@H]1c1ccccc1` (stereo partly shown) [Compound I-168], the IC50 came to 7 µM.

The same experiment, now with this note: human TrkA inhibition, Test Example 2; class symbols A/B/C; read-out: IC50_nM.
On to `Cc1c(-c2cnn(C)c2)nn(-c2ccccc2)c1NC(=O)N[C@H]1[C@H](c2ccc(F)c(F)c2)[C@@H]2CC[C@H]1N2` (racemic) [Compound I-68], for which the IC50 was more than 1 µM.

In the case of `COCCN1[C@@H]2CC[C@H]1[C@@H](c1ccc(F)c(F)c1)[C@@H]2NC(=O)Nc1c(C)c(-c2cnn(C)c2)nn1-c1ccccc1` (racemic) [Compound I-30], the IC50 was more than 1 µM.

As to `COCCN1C[C@@H](NC(=O)Nc2c(C)c(-c3cnn(C)c3)nn2-c2ccccc2)[C@H](c2ccc(C(=O)OC)cc2)C1` (racemic) [Compound I-20], the IC50 was 0.1 to 1 µM.

In the case of `COCCN1C[C@@H](NC(=O)Nc2c(C)c(-c3cnn(C)c3)nn2-c2ccccc2)[C@H](c2cccc(C3=CCCCC3)c2)C1` (racemic) [Compound I-58], the IC50 is more than 1 µM.

Regarding `Cc1c(-c2cnn(C)c2)nn(-c2ccccc2)c1NC(=O)N[C@@H]1CN(C(=O)OC(C)(C)C)C[C@H]1c1ccccc1` (racemic) [Compound I-5], the IC50 was more than 1 µM.

`COCOCCN1C[C@@H](NC(=O)Nc2c(C)c(-c3cnn(C)c3)nn2-c2ccccc2)[C@H](c2ccc(F)c(F)c2)C1` [Compound I-80]: the IC50 lay in the range of 0.1 to 1 µM.

On to `COCCN1C[C@@H](NC(=O)Nc2c(C)c(-c3cnn(C)c3)nn2-c2ccccc2)[C@H](c2ccc(C(=O)O)cc2)C1` (racemic) [Compound I-83], for which the IC50 is more than 1 µM.

As to `COCC(CN)N1C[C@@H](NC(=O)Nc2c(C)c(-c3cnn(C)c3)nn2-c2ccccc2)[C@H](c2ccc(F)c(F)c2)C1` (stereo partly shown) [Compound I-131], the IC50 fell in the range of 0.1 to 1 µM.

In the case of `COCC[C@H]1C[C@@H](NC(=O)Nc2c(C)c(-c3cnn(C)c3)nn2-c2ccccc2)[C@H](c2ccccc2)C1` [Compound I-95], the IC50 was less than 0.1 µM.

With `CCN1[C@@H]2CC[C@H]1[C@@H](c1ccc(F)c(F)c1)[C@@H]2NC(=O)Nc1c(C)c(-c2cnn(C)c2)nn1-c1ccccc1` (racemic) [Compound I-69], the IC50 is more than 1 µM.

With `COCCN1C[C@@H](NC(=O)Nc2c(C)c(-c3cnn(C)c3)nn2-c2ccccc2)[C@H](c2cccc(-c3cn[nH]c3)c2)C1` (racemic) [Compound I-175], the IC50 was more than 1 µM.

Turning to `Cc1c(-c2cnn(C)c2)nn(-c2ccccc2)c1NC(=O)N[C@@H]1C[N+](C)(C)C[C@H]1c1ccc(F)c(F)c1` [Compound I-25], the IC50 was more than 1 µM.

For `COCCN1C[C@@H](NC(=O)Nc2c(C)c(-c3cnn(C)c3)nn2-c2ccccc2)[C@H](c2cccc(-c3cccc(C#N)c3)c2)C1` (racemic) [Compound I-52], the IC50 lay in the range of 0.1 to 1 µM.

As for `COCCN1C[C@@H](NC(=O)Nc2c(C)c(-c3cnn(C)c3)nn2-c2ccccc2)[C@H](c2ccc3ccccc3c2)C1` (racemic) [Compound I-104], the IC50 is less than 0.1 µM.

As to `Cc1c(-c2cnn(C)c2)nn(-c2ccccc2)c1NC(=O)N[C@@H]1CN(Cc2ccccc2)C[C@H]1C1CCCCC1` (racemic) [Compound I-18], the IC50 was more than 1 µM.

`COCCN1C[C@@H](NC(=O)Nc2c(C)c(-c3cnn(C)c3)nn2-c2ccccc2)[C@H](c2nc3ccccc3s2)C1` (racemic) [Compound I-153]: the IC50 is more than 1 µM.

On to `COCC(C(=O)N(C)C)N1C[C@@H](NC(=O)Nc2c(C)c(-c3cnn(C)c3)nn2-c2ccccc2)[C@H](c2ccc(F)c(F)c2)C1` (stereo partly shown) [Compound I-174], for which the IC50 is more than 1 µM.

As to `COCC(CNC(C)=O)N1C[C@@H](NC(=O)Nc2c(C)c(-c3cnn(C)c3)nn2-c2ccccc2)[C@H](c2ccc(F)c(F)c2)C1` (stereo partly shown) [Compound I-112], the IC50 was 0.1 to 1 µM.

As to `Cc1c(-c2cnn(C)c2)nn(-c2ccccc2)c1NC(=O)N[C@@H]1CN(C2CCCC2)C[C@H]1c1ccc(F)c(F)c1` [Compound I-166], the IC50 was more than 1 µM.

As for `C=C1C[C@@H](NC(=O)Nc2c(C)c(-c3cnn(C)c3)nn2-c2ccccc2)[C@H](c2ccc(F)c(F)c2)C1` (racemic) [Compound I-135], the IC50 fell in the range of 0.1 to 1 µM.

With `COCCOCCN1C[C@@H](NC(=O)Nc2c(C)c(-c3cnn(C)c3)nn2-c2ccccc2)[C@H](c2ccc(F)c(F)c2)C1` [Compound I-81], the IC50 fell in the range of 0.1 to 1 µM.

Take `Cc1c(-c2cnn(C)c2)nn(-c2ccccc2)c1NC(=O)N[C@@H]1CN(C2CCOC2)C[C@H]1c1ccc(F)c(F)c1` (stereo partly shown) [Compound I-39]: the IC50 is more than 1 µM.

Regarding `COCCN1C[C@@H](NC(=O)N(C)c2c(C)c(-c3cnn(C)c3)nn2-c2ccccc2)[C@H](c2ccc(F)c(F)c2)C1` [Compound I-32], the IC50 was more than 1 µM.

On to `CCC1C[C@@H](NC(=O)Nc2c(C)c(-c3cnn(C)c3)nn2-c2ccccc2)[C@H](c2ccccc2)C1` (stereo partly shown) [Compound I-103], for which the IC50 was less than 0.1 µM.

On to `Cc1c(-c2cnn(C)c2)nn(-c2ccccc2)c1NC(=O)N[C@@H]1C[C@@H](C)N(C)[C@H]1c1ccc(F)c(F)c1` (racemic) [I 78], for which the IC50 was more than 1 µM.

As to `COCCN1C[C@@H](NC(=O)Nc2c(C)c(-c3cnn(C)c3)nn2-c2ccccc2)[C@H](C2CCCCC2)C1` (racemic) [Compound I-9], the IC50 was 0.1 to 1 µM.

As to `COCCN1C[C@@H](NC(=O)Nc2c(C)c(-c3cnn(C)c3)nn2-c2ccccc2)[C@H](c2ccc3oc(=O)[nH]c3c2)C1` (racemic) [Compound I-149], the IC50 is more than 1 µM.

On to `COCCN1C[C@@H](NC(=O)Nc2c(C)c(-c3cnn(C)c3)nn2-c2ccccc2)[C@H](c2ccc3cccnc3c2)C1` (racemic) [Compound I-150], for which the IC50 was more than 1 µM.

On to `COCCN1C[C@@H](NC(=O)Nc2c(C)c(-c3cnn(C)c3)nn2-c2ccccc2)[C@H](c2cccc(/C=C/c3ccccc3)c2)C1` (racemic) [Compound I-49], for which the IC50 was less than 0.1 µM.

As to `COCC(CN1CCOCC1)N1C[C@@H](NC(=O)Nc2c(C)c(-c3cnn(C)c3)nn2-c2ccccc2)[C@H](c2ccc(F)c(F)c2)C1` (stereo partly shown) [Compound I-158], the IC50 was more than 1 µM.

In the case of `Cc1c(-c2cnn(C)c2)nn(-c2ccccc2)c1NC(=O)N[C@@H]1CN(Cc2nccn2C)C[C@H]1c1ccc(F)c(F)c1` [Compound I-159], the IC50 was more than 1 µM.

`COCCN1C[C@@H](NC(=O)Nc2c(C)c(-c3cnn(C)c3)nn2-c2ccccc2)[C@H](c2cccc(-c3cccnc3)c2)C1` (racemic) [Compound I-56]: the IC50 is more than 1 µM.

`COCCN1C[C@@H](NC(=NOC)Nc2c(C)c(-c3cnn(C)c3)nn2-c2ccccc2)[C@H](c2ccccc2)C1` [Compound I-144]: the IC50 was more than 1 µM.

Consider `COCCN1C[C@@H](NC(=O)Nc2c(C)c(-c3cnn(C)c3)nn2-c2ccccc2)[C@H](c2cccc(C(N)=O)c2)C1` (racemic) [Compound I-21], for which the IC50 is more than 1 µM.

As to `COCCN1C[C@@H](NC(=O)Nc2c(C)c(-c3cnn(C)c3)nn2-c2ccccc2)[C@H](c2cccc(N(C)C)c2)C1` (racemic) [Compound I-171], the IC50 is more than 1 µM.

As for `COCC(=O)N1C[C@@H](NC(=O)Nc2c(C)c(-c3cnn(C)c3)nn2-c2ccccc2)[C@H](c2ccc(F)c(F)c2)C1` [Compound I-26], the IC50 is more than 1 µM.

For `COCCN1C[C@@H](NC(=O)Nc2c(C)c(-c3cnn(C)c3)nn2-c2ccccc2)[C@H](c2ccc3c(c2)N(C(=O)OC(C)(C)C)CCO3)C1` (racemic) [Compound I-167], the IC50 was more than 1 µM.

On to `COCC(CNOC)N1C[C@@H](NC(=O)Nc2c(C)c(-c3cnn(C)c3)nn2-c2ccccc2)[C@H](c2ccc(F)c(F)c2)C1` (stereo partly shown) [Compound I-113], for which the IC50 was in the range of 0.1 to 1 µM.

Turning to `COCC(CN(C)C)N1C[C@@H](NC(=O)Nc2c(C)c(-c3cnn(C)c3)nn2-c2ccccc2)[C@H](c2ccc(F)c(F)c2)C1` (stereo partly shown) [Compound I-115], the IC50 fell in the range of 0.1 to 1 µM.

`COCC(CNC(=O)OC)N1C[C@@H](NC(=O)Nc2c(C)c(-c3cnn(C)c3)nn2-c2ccccc2)[C@H](c2ccc(F)c(F)c2)C1` (stereo partly shown) [Compound I-139]: the IC50 lay in the range of 0.1 to 1 µM.

Regarding `CNCC(COC)N1C[C@@H](NC(=O)Nc2c(C)c(-c3cnn(C)c3)nn2-c2ccccc2)[C@H](c2ccc(F)c(F)c2)C1` (stereo partly shown) [Compound I-138], the IC50 lay in the range of 0.1 to 1 µM.

In the case of `COCC(CC(=O)OC)N1C[C@@H](NC(=O)Nc2c(C)c(-c3cnn(C)c3)nn2-c2ccccc2)[C@H](c2ccc(F)c(F)c2)C1` (stereo partly shown) [Compound I-117], the IC50 was in the range of 0.1 to 1 µM.

Regarding `Cc1c(-c2cnn(C)c2)nn(-c2ccccc2)c1NC(=O)N[C@@H]1CN(Cc2cscn2)C[C@H]1c1ccc(F)c(F)c1` [Compound I-90], the IC50 was less than 0.1 µM.
